This passage reports inhibition results from the Kinase Knowledgebase extract (Sharma et al. 2016).

The target of one test is EGFR (Hamster) (UniProt P00533). Conditions: er22, dose or concentration not given here.
A further test addresses EGFR (UniProt P00533). The conditions noted are these: concentration not given here.

Sequence of EGFR (Hamster) (P00533 whole entry, looked up): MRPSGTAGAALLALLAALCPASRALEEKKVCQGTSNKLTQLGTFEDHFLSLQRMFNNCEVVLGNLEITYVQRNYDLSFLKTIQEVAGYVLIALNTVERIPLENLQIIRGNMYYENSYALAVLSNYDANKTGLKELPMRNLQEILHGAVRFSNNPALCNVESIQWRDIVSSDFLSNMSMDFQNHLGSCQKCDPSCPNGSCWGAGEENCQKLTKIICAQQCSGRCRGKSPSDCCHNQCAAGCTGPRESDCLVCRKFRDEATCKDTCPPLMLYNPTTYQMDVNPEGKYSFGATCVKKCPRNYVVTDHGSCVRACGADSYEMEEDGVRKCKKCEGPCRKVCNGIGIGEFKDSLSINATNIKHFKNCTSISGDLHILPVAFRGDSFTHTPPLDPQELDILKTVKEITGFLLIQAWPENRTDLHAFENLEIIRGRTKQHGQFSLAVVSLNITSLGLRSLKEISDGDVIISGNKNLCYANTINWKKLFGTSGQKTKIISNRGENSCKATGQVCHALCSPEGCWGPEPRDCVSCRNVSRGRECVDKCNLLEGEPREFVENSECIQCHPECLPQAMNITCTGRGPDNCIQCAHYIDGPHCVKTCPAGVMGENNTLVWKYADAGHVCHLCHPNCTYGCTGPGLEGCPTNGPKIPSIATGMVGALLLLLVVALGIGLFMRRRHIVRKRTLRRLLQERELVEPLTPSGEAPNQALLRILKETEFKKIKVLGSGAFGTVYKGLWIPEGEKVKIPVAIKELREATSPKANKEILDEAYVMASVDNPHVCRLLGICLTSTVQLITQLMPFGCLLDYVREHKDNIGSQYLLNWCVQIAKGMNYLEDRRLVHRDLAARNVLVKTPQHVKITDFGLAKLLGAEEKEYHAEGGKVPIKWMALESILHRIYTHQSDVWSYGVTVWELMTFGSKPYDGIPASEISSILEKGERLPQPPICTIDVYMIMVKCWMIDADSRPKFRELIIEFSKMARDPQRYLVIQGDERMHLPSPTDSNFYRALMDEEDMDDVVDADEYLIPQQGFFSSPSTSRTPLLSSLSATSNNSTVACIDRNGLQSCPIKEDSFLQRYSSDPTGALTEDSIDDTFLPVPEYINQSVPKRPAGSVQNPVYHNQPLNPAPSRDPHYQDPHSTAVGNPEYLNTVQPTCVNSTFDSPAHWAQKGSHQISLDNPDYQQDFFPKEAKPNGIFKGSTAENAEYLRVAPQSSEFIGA
Sequence of EGFR (P00533 whole entry, looked up): as above

In general, inhibition refers to the drop in the measured response relative to a control, in per cent. Read a high inhibition as strong suppression. In the test with EGFR (Hamster), `COC(=O)c1ccc(-c2cc(O)cc(C(C)(C)C)c2)cc1` returned an inhibition of 0%. In the case of `CC(C)(C)c1ccc(-c2ccc(C(=O)O)cc2)c(O)c1`, the inhibition against EGFR and with EGFR (Hamster) was 0% in each case. Turning to `O=C(NCc1ccccc1)c1ccc(-c2ccc(-c3ccccc3)cc2O)cc1`, the inhibition on EGFR was 0%. On the same count and under the same terms, as for `CC(C)(C)c1cc(O)cc(-c2ccc(C(=O)NCc3ccccc3)cc2)c1`, the figure is 0%; as for `COCOc1cc(-c2ccccc2)ccc1-c1ccc(C(=O)NCc2ccccc2)cc1`, 0%.

`CC(C)(C)c1cc(O)cc(-c2ccc(CO)cc2)c1`: the inhibition against EGFR is 0%. As to `COC(=O)c1ccc(-c2ccc(-c3ccccc3)cc2O)cc1`, the inhibition at EGFR is 14%. Still for that read-out and setting: as for `COCOc1cc(C(C)(C)C)ccc1-c1ccc(C(=O)OC)cc1`, the figure is 0%. As to `COC(=O)c1ccc(-c2ccc(C(C)(C)C)cc2O)cc1`, in the test with EGFR (Hamster), the inhibition came out at 0%. For `O=C(NCc1ccccc1)c1ccc(-c2cccc(-c3ccccc3)c2O)cc1`, the inhibition against EGFR and with EGFR (Hamster) was 0% in each case.

Regarding `COCOc1cc(-c2ccccc2)ccc1-c1ccc(C(=O)OCC(C)CC(C)(C)C)cc1` (centres undefined), on EGFR, the inhibition is 0%.

Compound `COCOc1cc(C(C)(C)C)ccc1-c1ccc(C(=O)NCc2ccccc2)cc1` showed an inhibition against EGFR of 0%.
